From US20250382277A1, “SMALL MOLECULE INHIBITORS OF DYRK/CLK AND USES THEREOF” (Arizona Board of Regents on Behalf of the University of …, priority 2022, published 2025)
Counter-ions that a name gives are not always drawn.

Assays:
WNT signaling = assay: WNT reporter assay (TopGFP reporter); format: cell-based; settings: Human Colonic Epithelial Cells (HCEC) with TopGFP reporter, stimulated with 10 μM CHIR99021, 24 hours
Text: KDs were obtained from Eurofins.

DYRK1A [1] = target: T1, DYRK1A (Homo sapiens, UniProt Q13627); assay: biochemical
Experimental: (§1) KDs were obtained from Eurofins. The KdELECT Kinase Assay Panel enables quantitated compound binding affinity against any kinase assay. Inhibitor binding constants (Kd values) are calculated from duplicate 11-point dose-response curves. Measurements are made under optimized conditions that generate true thermodynamic Kd values which facilitate direct comparison of inhibitor affinity across kinases.

DYRK1A [2] = target: T1, DYRK1A; assay: KdELECT Kinase Assay Panel (Eurofins) binding affinity; settings: read-out: DYRK1A Kd, duplicate 11-point dose-response curves
Experimental: as §1

Row | Compound | EC50 (WNT signaling) [µM] | Kd (DYRK1A [1]) [µM] | Kd (DYRK1A [2]) [µM]
1 | Cc1cc(-c2ccc3ncnc(-c4ccc(N5CCOCC5)c(F)c4)c3n2)ccn1 [Compound 17, 4-(2-fluoro-4-(6-(2-methylpyridin-4-yl)pyrido[3,2-d]pyrimidin-4-yl)phenyl)morpholine] | > 1 | < 0.1 | 
2 | Nc1cc(-c2ccc3ncnc(-c4ccc(N5CCN(C6COC6)CC5)c(F)c4)c3c2)ccn1 [Compound 56, 4-(4-(3-fluoro-4-(4-(oxetan-3-yl)piperazin-1-yl)phenyl)quinazolin-6-yl)pyridin-2-amine] | < 0.1 | < 0.1 | 
3 | COC(=O)N1CCN(c2ccc(-c3ncnc4ccc(-c5ccnc(N)c5)cc34)cc2F)CC1 [Compound 52, methyl 4-(4-(6-(2-aminopyridin-4-yl)quinazolin-4-yl)-2-fluorophenyl)piperazine-1-carboxylate] | < 0.1 | < 0.1 | 
4 | Nc1cc(-c2ccc3ncnc(-c4cnc(N5CCC6(CCOC6)CC5)c(F)c4)c3c2)ccn1 [Compound 23, 4-(4-(5-fluoro-6-(2-oxa-8-azaspiro[4.5]decan-8-yl)pyridin-3-yl)quinazolin-6-yl)pyridin-2-amine hydrochloride] | 0.1 to 1 | < 0.1 | 
5 | CC(C)CN1CCN(c2ccc(-c3ncnc4ccc(-c5ccnc(N)c5)cc34)cc2F)CC1 [Compound 48, 4-(4-(3-fluoro-4-(4-isobutylpiperazin-1-yl)phenyl)quinazolin-6-yl)pyridin-2-amine] | < 0.1 | < 0.1 | 
6 | CCN1CCN(c2ccc(-c3ncnc4ccc(-c5ccnc(N)c5)cc34)cc2F)CC1 [Compound 36, 4-(4-(4-(4-ethylpiperazin-1-yl)-3-fluorophenyl)quinazolin-6-yl)pyridin-2-amine] | 0.1 to 1 | < 0.1 | 
7 | 1-(5-(4-(6-(2-aminopyridin-4-yl)quinazolin-4-yl)-2-fluorophenyl)hexahydropyrrolo[3,4-c]pyrrol-2(1H)-yl)ethan-1-one [Compound 46] |  |  | < 0.1
8 | Nc1cc(-c2ccc3ncnc(-c4cnc(N5CCOCC5)c(F)c4)c3c2)ccn1 [Compound 11, 4-(4-(5-fluoro-6-morpholinopyridin-3-yl)quinazolin-6-yl)pyridin-2-amine] | 0.1 to 1 | < 0.1 | 
9 | Nc1cc(-c2ccc3ncnc(-c4ccc(N5CCOCC5)c(F)c4)c3n2)ccn1 [Compound 12, 4-(4-(3-fluoro-4-morpholinophenyl)pyrido[3,2-d]pyrimidin-6-yl)pyridin-2-amine] | < 0.1 | < 0.1 | 
10 | Nc1cc(-c2ccc3ncnc(-c4ccc(N5C[C@@H]6C[C@H]5CO6)c(F)c4)c3c2)ccn1 [Compound 29, 4-(4-(4-((1S,4S)-2-oxa-5-azabicyclo[2.2.1]heptan-5-yl)-3-fluorophenyl)quinazolin-6-yl)pyridin-2-amine] | 0.1 to 1 | < 0.1 | 
11 | [2H]C([2H])([2H])N1CCN(c2ccc(-c3ncnc4ccc(-c5ccnc(N)c5)cc34)cc2F)CC1 [Compound 51, 4-(4-(3-fluoro-4-(4-(methyl-d3)piperazin-1-yl)phenyl)quinazolin-6-yl)pyridin-2-amine] | < 0.1 | < 0.1 | 
12 | CC(C)(C)N1CCN(c2ccc(-c3ncnc4ccc(-c5ccnc(N)c5)cc34)cc2F)CC1 [Compound 45, 4-(4-(4-(4-(tert-butyl)piperazin-1-yl)-3-fluorophenyl)quinazolin-6-yl)pyridin-2-amine] | 0.1 to 1 | < 0.1 | 
13 | Nc1cc(-c2ccc3nccc(-c4ccc(N5CCOCC5)c(F)c4)c3c2)ccn1 [Compound 32, 4-(4-(3-fluoro-4-morpholinophenyl)quinolin-6-yl)pyridin-2-amine] | 0.1 to 1 | < 0.1 | 
14 | CC1(C)CN(c2ncc(-c3ncnc4ccc(-c5ccnc(N)c5)cc34)cc2F)CCO1 [Compound 20, 4-(4-(6-(2,2-dimethylmorpholino)-5-fluoropyridin-3-yl)quinazolin-6-yl)pyridin-2-amine] | > 1 | < 0.1 | 
15 | CC(C)N1CCN(c2ccc(-c3ncnc4ccc(-c5ccnc(N)c5)cc34)cc2F)CC1 [Compound 50, 4-(4-(3-fluoro-4-(4-isopropylpiperazin-1-yl)phenyl)quinazolin-6-yl)pyridin-2-amine] | 0.1 to 1 | < 0.1 | 
16 | CC(=O)N1CCN(c2ccc(-c3ccnc4ccc(-c5ccnc(N)c5)cc34)cc2)CC1 [Compound 38, 1-(4-(4-(6-(2-aminopyridin-4-yl)quinolin-4-yl)phenyl)piperazin-1-yl)ethan-1-one] | < 0.1 | < 0.1 | 
17 | Fc1cc(-c2ncnc3ccc(-c4c[nH]c5ncccc45)cc23)ccc1N1CCNCC1 [Compound 33, 4-(3-fluoro-4-(piperazin-1-yl)phenyl)-6-(1H-pyrrolo[2,3-b]pyridin-3-yl)quinazoline] | 0.1 to 1 | < 0.1 | 
18 | CN1CCN(c2ccc(-c3ncnc4ccc(-c5ccnc(N)c5)cc34)cc2F)CC1 [Compound 25, 4-(4-(3-fluoro-4-(4-methylpiperazin-1-yl)phenyl)quinazolin-6-yl)pyridin-2-amine] | < 0.1 | < 0.1 | 

Row | Compound | EC50 (WNT signaling) [µM] | Kd (DYRK1A [1]) [µM] | Kd (DYRK1A [2]) [µM]
19 | Nc1cc(-c2ccc3ncnc(-c4cnc(N5CCC6(CCNC6=O)CC5)c(F)c4)c3c2)ccn1 [Compound 30, 8-(5-(6-(2-aminopyridin-4-yl)quinazolin-4-yl)-3-fluoropyridin-2-yl)-2,8-diazaspiro[4.5]decan-1-one] | 0.1 to 1 | < 0.1 | 
20 | Fc1cc(-c2ncnc3ccc(-c4c[nH]c5ncccc45)cc23)cnc1N1CCNCC1 [Compound 27, 4-(5-fluoro-6-(piperazin-1-yl)pyridin-3-yl)-6-(1H-pyrrolo[2,3-b]pyridin-3-yl)quinazoline] | 0.1 to 1 | < 0.1 | 
21 | Nc1cc(-c2ccc3ncnc(-c4ccc(N5CCN(C6COC6)CC5)cc4)c3c2)ccn1 [Compound 42, 4-(4-(4-(4-(oxetan-3-yl)piperazin-1-yl)phenyl)quinazolin-6-yl)pyridin-2-amine] | < 0.1 | < 0.1 | 
22 | Nc1cc(-c2ccc3ncnc(-c4cccc(N5CCOCC5)c4)c3c2)ccn1 [Compound 4, 4-(4-(3-morpholinophenyl)quinazolin-6-yl)pyridin-2-amine] | > 1 | < 0.1 | 
23 | Nc1cc(-c2ccc3ncnc(-c4ccc(CN5CCOCC5)c(F)c4)c3c2)ccn1 [Compound 3, 4-(4-(3-fluoro-4-(morpholinomethyl)phenyl)quinazolin-6-yl)pyridin-2-amine] | 0.1 to 1 | < 0.1 | 
24 | CN1[C@@H]2CC[C@H]1CN(c1ccc(-c3ncnc4ccc(-c5ccnc(N)c5)cc34)cc1F)C2 [Compound 43, 4-(4-(3-fluoro-4-((1R,5S)-8-methyl-3,8-diazabicyclo[3.2.1]octan-3-yl)phenyl)quinazolin-6-yl)pyridin-2-amine] | 0.1 to 1 | < 0.1 | 
25 | Nc1cc(-c2ccc3ncnc(-c4ccc(N5CCN(C6CCOCC6)CC5)c(F)c4)c3c2)ccn1 [Compound 55, 4-(4-(3-fluoro-4-(4-(tetrahydro-2H-pyran-4-yl)piperazin-1-yl)phenyl)quinazolin-6-yl)pyridin-2-amine] | < 0.1 | < 0.1 | 
26 | Nc1cc(-c2ccc3ncnc(-c4cnc(N5CCNCC5)c(F)c4)c3c2)ccn1 [Compound 24, 4-(4-(5-fluoro-6-(piperazin-1-yl)pyridin-3-yl)quinazolin-6-yl)pyridin-2-amine hydrochloride] | > 1 | < 0.1 | 
27 | CC(=O)N1C[C@@H]2C[C@H]1CN2c1ccc(-c2ncnc3ccc(-c4ccnc(N)c4)cc23)cc1F [Compound 40, 1-((1S,4S)-5-(4-(6-(2-aminopyridin-4-yl)quinazolin-4-yl)-2-fluorophenyl)-2,5-diazabicyclo[2.2.1]heptan-2-yl)ethan-1-one] | 0.1 to 1 | < 0.1 | 
28 | CC(=O)N1CCN(c2ccc(-c3ncnc4ccc(-c5ccnc(N)c5)cc34)cc2)CC1 [Compound 22, 1-(4-(4-(6-(2-aminopyridin-4-yl)quinazolin-4-yl)phenyl)piperazin-1-yl)ethan-1-one] | < 0.1 | < 0.1 | 
29 | Nc1cc(-c2ccc3ncnc(-c4ccc(N5CC6(COC6)C5)c(F)c4)c3c2)ccn1 [Compound 28, 4-(4-(3-fluoro-4-(2-oxa-6-azaspiro[3.3]heptan-6-yl)phenyl)quinazolin-6-yl)pyridin-2-amine] | 0.1 to 1 | < 0.1 | 
30 | CC(=O)N1C[C@@H]2C[C@H]1CN2c1ccc(-c2ncnc3ccc(-c4ccnc(N)c4)cc23)cc1 [Compound 39, 1-((1S,4S)-5-(4-(6-(2-aminopyridin-4-yl)quinazolin-4-yl)phenyl)-2,5-diazabicyclo[2.2.1]heptan-2-yl)ethan-1-one] | 0.1 to 1 | < 0.1 | 
31 | Nc1cc(-c2ccc3ncnc(-c4ccc(N5CCOCC5)cc4)c3c2)ccn1 [Compound 16, 4-(4-(4-morpholinophenyl)quinazolin-6-yl)pyridin-2-amine] | 0.1 to 1 | < 0.1 | 
32 | CN1CCN(c2ncc(-c3ncnc4ccc(-c5ccnc(N)c5)cc34)cc2F)CC1 [Compound 9, 4-(4-(5-fluoro-6-(4-methylpiperazin-1-yl)pyridin-3-yl)quinazolin-6-yl)pyridin-2-amine] | 0.1 to 1 | < 0.1 | 
33 | Nc1cc(-c2ccc3ncnc(-c4ccc(N5CCN(CCO)CC5)cc4)c3c2)ccn1 [Compound 41, 2-(4-(4-(6-(2-aminopyridin-4-yl)quinazolin-4-yl)phenyl)piperazin-1-yl)ethan-1-ol] | < 0.1 | < 0.1 | 
34 | CN(C)C(=O)N1CCN(c2ccc(-c3ncnc4ccc(-c5ccnc(N)c5)cc34)cc2F)CC1 [Compound 49, 4-(4-(6-(2-aminopyridin-4-yl)quinazolin-4-yl)-2-fluorophenyl)-N,N-dimethylpiperazine-1-carboxamide] | < 0.1 | < 0.1 | 
35 | Nc1cc(-c2ccc3ncnc(-c4cccc(CN5CCOCC5)c4)c3c2)ccn1 [Compound 8, 4-(4-(3-(morpholinomethyl)phenyl)quinazolin-6-yl)pyridin-2-amine] | > 1 | < 0.1 | 
